Experimental data: ChEMBL document CHEMBL1126351, “()-7-deazacarbovir as a compound with potential anti-hiv and anti-hcmv properties” (Bioorg Med Chem Lett, 1992)

Test system: HFF
Assay: Compound was evaluated for CPE inhibition using anti-HCMV assay in AD169 strain infected HFF cells
Type: functional, cell-based
Settings: Homo sapiens

Nc1nc(O)c2ccn(C3C=CC(CO)C3)c2n1 (configuration not stated)
EC50: 350 µM
IC50: > 410 µM
